# According to publication PMC5822683 (Inflammation, 2014):
# Where a SMILES comes first, the peptide text is derived from it.
# What was measured:
# [1] = system: human neutrophils stimulated by septic patient serum; settings: ref [24], cited from earlier work
# leukocytes = settings: ref [24]; cited from earlier work
# [2] = ref [21], [48]; cited from earlier work
# [3] = system: LPS-stimulated isolated human leukocytes; settings: 40 μg/ml, LPS 1 μg/ml, n=3
# [4] = system: IL-8-stimulated human neutrophils
# paraoxonase 1 = settings: ref [20], [41]; cited from earlier work
# primary human monocytes = settings: ref [28]; cited from earlier work
# [5] = system: LPS-stimulated isolated human neutrophils
# [6] = system: TNF-α-stimulated whole human blood; settings: 40 μg/ml, human TNF-α 10 ng/ml, 6 h at 37 °C, n=4 (Fig. 2)
# [7] = system: LPS-stimulated isolated human neutrophils; settings: 50 % donor plasma, 40 μg/ml
# [8] = system: LPS-stimulated whole human blood; settings: 40 μg/ml, LPS 1 μg/ml, 3 h at 37 °C
# [9] = system: animal models of acute inflammation / severe sepsis; settings: cited from earlier work
# [10] = statement in the discussion, no reference given; cited from earlier work
# [11] = system: lipopolysaccharide-binding protein (LBP); settings: ref [21]; cited from earlier work
# [12] = compared with human apoA-I; ref [37]; cited from earlier work
# rodents = settings: compared with L-4F doses studied here (Fig. S4)
# [13] = system: patients with high-risk cardiovascular disease; settings: selected groups of patients with high-risk cardiovascular disease; ref [55], [56]; cited from earlier work
# [14] = system: human monocyte-derived macrophages; settings: ref [29]; cited from earlier work
molecule,measurement,setting,value
CC(=O)N[C@@H](CC(=O)O)C(=O)N[C@@H](Cc1c[nH]c2ccccc12)C(=O)N[C@@H](Cc1ccccc1)C(=O)N[C@@H](CCCCN)C(=O)N[C@@H](C)C(=O)N[C@@H](Cc1ccccc1)C(=O)N[C@@H](Cc1ccc(O)cc1)C(=O)N[C@@H](CC(=O)O)C(=O)N[C@@H](CCCCN)C(=O)N[C@H](C(=O)N[C@@H](C)C(=O)N[C@@H](CCC(=O)O)C(=O)N[C@@H](CCCCN)C(=O)N[C@@H](Cc1ccccc1)C(=O)N[C@@H](CCCCN)C(=O)N[C@@H](CCC(=O)O)C(=O)N[C@@H](C)C(=O)N[C@@H](Cc1ccccc1)C(N)=O)C(C)C [L-4F] (Ac-DWFKAFYDKVAEKFKEAF-NH2),effective concentration,"[1]; concentration at which effective, L-4F",40 µg/mL
same,activation of neutrophils by septic patient serum,[1],inhibits activation of human neutrophils stimulated by septic patient serum
same,inhibition of binding of LPS to leukocytes,leukocytes,inhibit binding of LPS to leukocytes
same,interaction with LPS (co-localization of Bodipy-LPS and ^14C-L-4F in FPLC fractions),[2],interaction of LPS and L-4F was strongly suggested
same,effect on LPS-mediated chemiluminescence (rate and peak),"[3]; 5 or 50 % donor plasma, lucigenin 10 μM, 3 h at 37 °C, both P<0.05 vs. LPS (Fig. 9)",inhibits the rate as well as peak of LPS-mediated chemiluminescence
same,"inhibition of oxidative stress, L-4F vs. apoA-I","[3]; 50 % plasma, 3 h, NS vs. apoA-I",the inhibitory effects of L-4F and apoA-I are similar
same,effect on IL-8-induced increase of CD11b expression,[4],only minimal effect
same,effect on IL-8-induced increase of lipid rafts abundance,[4],only minimal effect
same,HDL-associated paraoxonase 1 activity,paraoxonase 1,increasing HDL-associated paraoxonase 1 activity
same,cholesterol efflux and lipid raft abundance,primary human monocytes,stimulate cholesterol efflux and reduce lipid raft abundance
same,effect of agent alone on CD11b expression and lipid raft abundance,[5],Neither L-4F alone nor apoA-I alone affects CD11b expression and lipid raft abundance
same,effect on LPS-increased CD11b expression,[5],"inhibits this effect (P<0.05 vs. LPS, for L-4F at all time points and for apoA-I at 30 min, Fig. 3A, B)"
same,effect on LPS-increased lipid raft abundance,[5],"inhibits this effect (P<0.05 vs. LPS, for L-4F at 1 and 3 h and for apoA-I at 1 h, Fig. 3C, D)"
same,effect on TNF-α-mediated elevation of plasma IL-6,[6],does not reduce plasma levels of IL-6
same,effect on LPS-induced TNF-α levels,"[7]; LPS 1 μg/ml, 30 min, 1 h, 3 h (Fig. 5A)","inhibit this effect (P<0.05 vs. LPS, for 30 min and 1 h, Fig. 5A)"
same,effect on LPS-mediated MPO elevation,"[7]; LPS 1 μg/ml, 30 min, 1 h, 3 h (Fig. 5B)","only inhibitory effect of L-4F reaches statistical significance (P<0.05 vs. LPS, for 30 min and 3 h, Fig. 5B)"
same,effect on LPS-mediated IL-6 increase,"[7]; LPS 1 μg/ml, 3 h, cell media, n=3, ELISA (Fig. 6)",significantly inhibits LPS-mediated IL-6 increase (P<0.05 vs. LPS)
same,"comparison with apoA-I, LPS-mediated increase in IL-6 levels",[7]; LPS-stimulated neutrophils,tended to be superior in inhibiting LPS-mediated increase in IL-6 levels
same,effect on inflammatory response to LPS (TNF-α and IL-6),"[8]; ELISA, n=4 (Fig. 1)",inhibits inflammatory response to LPS in blood to an equal extent
same,plasma level of TNF-α,"[8]; n=4/group, *P<0.05 vs. saline-treated LPS (Fig. 1A)",reduces plasma levels of TNF-α
same,plasma level of IL-6,"[8]; n=4/group, *P<0.05 vs. saline-treated LPS (Fig. 1B)",reduces plasma levels of TNF-α (A) and IL-6
same,dose with high efficiency in animal models of severe sepsis,"[9]; L-4F, ref [22]–[24]",10 mg/kg
same,effect in cecal ligation and puncture model of polymicrobial sepsis,"[9]; cecal ligation and puncture, ref [22]",has protective effects
same,effect in animal models of acute inflammation,[9]; ref [22]–[25],reduces inflammatory response and improves survival
same,water solubility,[10],high water solubility
same,competition with LBP for binding with LPS,[11],compete with lipopolysaccharide-binding protein (LBP) for binding with LPS
same,binding affinity for pro-inflammatory oxidized lipids,[12],binds pro-inflammatory oxidized lipids with higher affinity than human apoA-I
same,tolerability in rodents,rodents,rodents were able to tolerate L-4F in much higher doses
Ac-DWFKAFYDKVAEKFKEAF-NH2 [4F],anti-inflammatory properties,[9]; ref [19]–[21],exerts strong anti-inflammatory properties
same,safety profile in patients,[13],acceptable safety profile
same,disruption of rafts and responsiveness of macrophages to LPS,[14],attenuating the responsiveness of macrophages to LPS
